According to PMC9649518, “Knockout of ABC transporters by CRISPR/Cas9 contributes to reliable and accurate transporter substrate identification for drug discovery” (Frontiers in Pharmacology, 2022):
Where two headings read alike, the source gives them in different places. Blank lines part the entries; values can stand above or below the compound they belong to.

Key:
[1] = test system: Caco-2 WT cells
[2] = test system: Caco^Pgp−/− cells
[3] = test system: Caco^BCRP−/− cells
[4] = test system: Caco^MRP2−/− cells
[5] = test system: Caco^Pgp−/−BCRP−/− cells
[6] = test system: Caco^Pgp−/−MRP2−/− cells
[7] = test system: Caco^MRP2−/−BCRP−/− cells
[8] = Bidirectional transport assay, Caco^BCRP−/− and Caco^MRP2−/− cells taken together; assay type: in vitro ADME; conditions: human
Description: (§1) The medium was replaced every second day.
(§2) All these studies were conducted by following similar procedures. […] Then, HBSS was aspirated from both sides.
(§3) The flow rate was 0.3 mL/min.

[9] = Bidirectional transport assay across Caco-2 WT monolayers; conditions: human
[10] = test system: Caco-2 WT cells; experiment: as above; conditions: WT Caco-2, 5 μM substrate, n = 3
[11] = Bidirectional transport assay across P-gp KO Caco-2 monolayers; conditions: human, pH 7.4
[12] = Bidirectional transport assay across BCRP KO Caco-2 monolayers; conditions: human; for Papp A→B at 1 h, 5 μM / Papp B→A at 1 h, 5 μM: pH 7.4
[13] = Bidirectional transport assay across MRP2 KO Caco-2 monolayers; conditions: human, pH 7.4
[14] = Bidirectional transport assay across P-gp/BCRP double KO Caco-2 monolayers; conditions: human, pH 7.4
[15] = Bidirectional transport assay across P-gp/MRP2 double KO Caco-2 monolayers; conditions: human, pH 7.4
[16] = Bidirectional transport assay across MRP2/BCRP double KO Caco-2 monolayers; conditions: human; for Papp A→B at 1 h, 5 μM: pH 7.4, Papp A-to-B, Caco^MRP2−/−BCRP−/−, 5 μM substrate, 37°C, HBSS pH 7.4, n = 3
[17] = test system: Caco^MRP2−/−BCRP−/− cells; experiment: as above; conditions: Caco^MRP2−/−BCRP−/−; 5 μM substrate; 1 h, 37°C, HBSS pH 7.4; n = 3
[18] = Bidirectional transport assay, P-gp single- and double-KO cells taken together; assay type: in vitro ADME; conditions: human, pH 7.4, 5 μM substrate
Description: as §1, §2, §3

[19] = test system: BCRP, MRP2, and MRP2/BCRP knock-out cell lines mediated by ZFN; parameters: method as in Sampson et al., 2015; conditions: ref Sampson et al., 2015, cited from earlier work

Papp A-to-B [1]: 1.05 ± 0.34 ×10^−6cm/s
Papp B-to-A [1]: 8.25 ± 0.63 ×10^−6cm/s
Papp A-to-B [2]: 1.94 ± 0.10 ×10^−6cm/s
Papp B-to-A [2]: 11.95 ± 1.61 ×10^−6cm/s
Papp A-to-B [3]: 2.14 ± 0.08 ×10^−6cm/s
Papp B-to-A [3]: 10.63 ± 0.96 ×10^−6cm/s
Papp A-to-B [4]: 2.33 ± 0.62 ×10^−6cm/s
Papp B-to-A [4]: 1.10 ± 0.13 ×10^−6cm/s
Papp A-to-B [5]: 2.02 ± 0.20 ×10^−6cm/s
Papp B-to-A [5]: 9.42 ± 0.55 ×10^−6cm/s
Papp A-to-B [6]: 2.41 ± 0.55 ×10^−6cm/s
Papp B-to-A [6]: 1.64 ± 0.46 ×10^−6cm/s
Papp A-to-B [7]: 3.48 ± 0.51 ×10^−6cm/s
Papp B-to-A [7]: 3.05 ± 0.80 ×10^−6cm/s
Compound: 5-(and-6)-carboxy-2′,7′-dichlorofluorescein [CDCF]

Compound: CC(C)CN(C[C@@H](O)[C@H](Cc1ccccc1)NC(=O)O[C@H]1CO[C@H]2OCC[C@H]21)S(=O)(=O)c1ccc(N)cc1 [Darunavir]
Papp A→B at 1 h, 5 μM ([8]; pH 7.4, read-out: Papp (A-to-B) permeability): 1.7 to 1.8 ×10⁻⁶ cm/s
Papp B→A at 1 h, 5 μM ([8]; pH 7.4, read-out: Papp (B-to-A) permeability): 29.8 to 34.3 ×10⁻⁶ cm/s
Papp A→B at 1 h, 5 μM ([9]; Caco-2, pH 7.4, Papp A-to-B, WT Caco-2, 5 μM substrate, 1 h, 37°C, HBSS pH 7.4, n = 3): 2.6 ×10⁻⁶ cm/s
Papp B→A at 1 h, 5 μM ([9]; Caco-2, pH 7.4, Papp B-to-A, WT Caco-2, 5 μM substrate, 1 h, 37°C, HBSS pH 7.4, n = 3): 26.6 ×10⁻⁶ cm/s
Papp A-to-B ([10]; 1 h, 37°C, HBSS pH 7.4): 2.65 ± 0.22 ×10^−6cm/s
Papp B-to-A ([10]; 1 h, 37°C, HBSS pH 7.4): 26.59 ± 2.06 ×10^−6cm/s
Papp A→B at 1 h, 5 μM [11]: 15.1 ± 0.68 ×10⁻⁶ cm/s
Papp B→A at 1 h, 5 μM [11]: 13.6 ± 0.8 ×10⁻⁶ cm/s
Papp A→B at 1 h, 5 μM [12]: 1.75 ± 0.13 ×10⁻⁶ cm/s
Papp B→A at 1 h, 5 μM [12]: 34.32 ± 0.19 ×10⁻⁶ cm/s
Papp A→B at 1 h, 5 μM [13]: 1.9 ± 0.14 ×10⁻⁶ cm/s
Papp B→A at 1 h, 5 μM [13]: 29.84 ± 0.24 ×10⁻⁶ cm/s
Papp A→B at 1 h, 5 μM [14]: 12.6 ± 1.31 ×10⁻⁶ cm/s
Papp B→A at 1 h, 5 μM [14]: 11.5 ± 0.38 ×10⁻⁶ cm/s
Papp A→B at 1 h, 5 μM [15]: 10.1 ± 0.44 ×10⁻⁶ cm/s
Papp B→A at 1 h, 5 μM [15]: 10.4 ± 0.2 ×10⁻⁶ cm/s
Papp B→A at 1 h, 5 μM ([16]; pH 7.4): 27 ± 0.79 ×10⁻⁶ cm/s
Papp A→B at 1 h, 5 μM [16]: 4.4 ×10⁻⁶ cm/s
Papp A-to-B [17]: 4.43 ± 0.63 ×10^−6cm/s

efflux ratio at 1 h, 5 μM [18]: 1
Papp A→B at 1 h, 5 μM ([9]; Caco-2, pH 7.4): 1.48 ± 0.21 ×10⁻⁶ cm/s
Papp B→A at 1 h, 5 μM ([9]; Caco-2, pH 7.4): 9.33 ± 1.34 ×10⁻⁶ cm/s
efflux ratio at 1 h, 5 μM ([9]; Caco-2, pH 7.4, Efflux ratio, WT Caco-2, 5 μM substrate, Papp(B-to-A)/Papp(A-to-B), n = 3): 6.4
Efflux ratio ([10]; Papp(B-to-A)/Papp(A-to-B)): 6.38 ± 1.21
Papp A→B at 1 h, 5 μM [11]: 1.42 ± 0.2 ×10⁻⁶ cm/s
Papp B→A at 1 h, 5 μM [11]: 1.67 ± 0.23 ×10⁻⁶ cm/s
efflux ratio at 1 h, 5 μM [11]: 1.2 ± 0.21
Papp A→B at 1 h, 5 μM [12]: 1.66 ± 0.42 ×10⁻⁶ cm/s
Papp B→A at 1 h, 5 μM [12]: 14.8 ± 1.85 ×10⁻⁶ cm/s
efflux ratio at 1 h, 5 μM ([12]; pH 7.4, Efflux ratio, Caco^BCRP−/−, 5 μM substrate, n = 3): 9.11 ± 1.66
Papp A→B at 1 h, 5 μM [13]: 2.05 ± 0.51 ×10⁻⁶ cm/s
Papp B→A at 1 h, 5 μM [13]: 17.6 ± 1.13 ×10⁻⁶ cm/s
efflux ratio at 1 h, 5 μM [13]: 9.08 ± 2.87
Papp A→B at 1 h, 5 μM [14]: 2.42 ± 0.64 ×10⁻⁶ cm/s
Papp B→A at 1 h, 5 μM [14]: 2.08 ± 0.12 ×10⁻⁶ cm/s
efflux ratio at 1 h, 5 μM [14]: 0.9 ± 0.21
Papp A→B at 1 h, 5 μM [15]: 1.95 ± 0.92 ×10⁻⁶ cm/s
Papp B→A at 1 h, 5 μM [15]: 1.87 ± 0.4 ×10⁻⁶ cm/s
efflux ratio at 1 h, 5 μM [15]: 1.05 ± 0.29
Papp B→A at 1 h, 5 μM ([16]; pH 7.4): 17.9 ± 0.63 ×10⁻⁶ cm/s
efflux ratio at 1 h, 5 μM ([16]; pH 7.4): 9.36 ± 3.17
Papp A→B at 1 h, 5 μM [16]: 2.03 ± 0.55 ×10⁻⁶ cm/s
Compound: C[C@H]1O[C@@H](O[C@H]2[C@@H](O)C[C@H](O[C@H]3[C@@H](O)C[C@H](O[C@H]4CC[C@@]5(C)[C@H](CC[C@@H]6[C@@H]5C[C@@H](O)[C@]5(C)[C@@H](C7=CC(=O)OC7)CC[C@]65O)C4)O[C@@H]3C)O[C@@H]2C)C[C@H](O)[C@@H]1O [Digoxin]
Papp A-to-B ([19]; BCRP, MRP2, and MRP2/BCRP knock-out cell lines mediated by ZFN): ~ 0.25 × 10^–6 cm/s
Papp A-to-B ([19]; starting value before knock-out ('from')): 0.99 × 10^–6 cm/s
